Experimental data taken from patent publication US20020026052A1, “3-cyanoquinolines, 3-cyano-1,6-naphthyridines, and 3-cyano-1,7-naphthyridines as protein kinase inhibitors” (American Home Products Corporation, priority 2000, published 2002).
Where “and” joins values, the source holds several entries; their conditions need not be identical. Equal values may be shown once.

Assays:
[1] = molecular target: Rat2 fibroblasts stably transformed with v-Src/Hu c-Src fusion gene (Homo sapiens, UniProt P12931, cells depend on it, form not given); assay: Anchorage Independent Src-transformed Fibroblast Proliferation Assay; assay type: cell-based, Rat; conditions: suspension growth, MTS reagent on Day 5; read-out: anch-indep src-tx fib IC50
Sequence of Rat2 fibroblasts stably transformed with v-Src/Hu c-Src fusion gene (P12931 whole entry, change not shown, the tested form may be a part): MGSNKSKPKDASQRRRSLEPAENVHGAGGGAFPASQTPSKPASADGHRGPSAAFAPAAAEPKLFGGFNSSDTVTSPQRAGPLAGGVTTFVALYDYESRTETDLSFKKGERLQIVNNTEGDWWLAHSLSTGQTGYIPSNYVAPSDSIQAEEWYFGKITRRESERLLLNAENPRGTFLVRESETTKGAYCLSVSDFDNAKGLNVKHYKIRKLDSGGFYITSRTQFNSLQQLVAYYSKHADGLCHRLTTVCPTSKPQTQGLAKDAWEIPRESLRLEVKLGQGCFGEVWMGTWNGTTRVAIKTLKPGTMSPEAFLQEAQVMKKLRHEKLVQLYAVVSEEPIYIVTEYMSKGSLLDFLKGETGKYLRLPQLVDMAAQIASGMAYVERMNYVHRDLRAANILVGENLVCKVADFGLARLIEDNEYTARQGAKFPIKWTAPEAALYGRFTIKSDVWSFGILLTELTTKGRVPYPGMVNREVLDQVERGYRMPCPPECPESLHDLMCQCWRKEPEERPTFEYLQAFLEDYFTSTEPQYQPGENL
Method: Anchorage Independent Src-transformed Fibroblast Proliferation Assay
Rat2 fibroblasts stably transformed with a plasmid containing a CMV promotor controlled v-Src/Hu c-Src fusion gene in which the catalytic domain of human c-Src was inserted in place of the v-Src catalytic domain in the v-Src gene are used for the measurement of src dependent suspension growth. […] Multiple entries for a given compound indicate that it was tested multiple times.

| melting point | GI50 [1] | Compound |
| --- | --- | --- |
| 128 to 130 °C | > 10000 nM | N#Cc1cnc2cc(C=CCCCCN3CCOCC3)ccc2c1Nc1ccc(Cl)cc1Cl (mixture of isomers) [Example 16, 4-(2,4-Dichloroanilino)-7-[(E/Z)-6-(4-morpholinyl)-1-hexenyl]-3-quinolinecarbonitrile] |
| 203 to 205 °C | 1300 nM and 930 nM | N#Cc1cnc2cc(-c3csc(CN4CCOCC4)c3)ccc2c1Nc1ccc(Cl)cc1Cl [Example 25, 4-(2,4-Dichloroanilino)-7-[5-(4-morpholinylmethyl)-3-thienyl]-3-quinolinecarbonitrile] |
| 243 to 244 °C | 6900 nM | COc1cc(Nc2c(C#N)cnc3cc(-c4ccc5ccccc5c4)ccc23)c(Cl)cc1Cl [Example 117, 4-(2,4-Dichloro-5-methoxyanilino)-7-(2-naphthyl)-3-quinolinecarbonitrile] |
| 224 to 229 °C | 200 nM | COc1cc(Nc2c(C#N)cnc3cc(-c4ccc(C5OCCO5)o4)ccc23)c(Cl)cc1Cl [Example 5, 4-(2,4-dichloro-5-methoxyanilino)-7-[5-(1,3-dioxolan-2-yl)-2-furyl]-3-quinolinecarbonitrile] |
| 123 to 128 °C | 5100 nM | COc1cc(Nc2c(C#N)cnc3cc(-c4ccc(CNCCS(=O)(=O)c5ccccc5)o4)ccc23)c(Cl)cc1Cl [Example 58, 4-(2,4-Dichloro-5-methoxyanilino)-7-[5-({[2-(phenylsulfonyl)ethyl]amino}methyl)-2-furyl]-3-quinolinecarbonitrile] |
| 121 to 126 °C | 1170 nM | COc1cc(Nc2c(C#N)cnc3cc(-c4ccc(CN5CCC[C@@H]5C(N)=O)o4)ccc23)c(Cl)cc1Cl [Example 47, (2 R)-1-({5-[3-cyano-4-(2,4-dichloro-5-methoxyanilino)-7-quinolinyl]-2-furyl}methyl)-2-pyrrolidinecarboxamide] |
| 118 to 125 °C | 310 nM | N#Cc1cnc2cc(-c3cc(CN4CCOCC4)c(CN4CCOCC4)s3)ccc2c1Nc1ccc(Cl)cc1Cl [Example 17] |
| 171 to 174 °C | 420 nM | COc1cc(Nc2c(C#N)cnc3cc(-c4ccc(CNCCS(C)(=O)=O)o4)ccc23)c(Cl)cc1Cl [Example 77, 4-(2,4-Dichloro-5-methoxyanilino)-7-[5-({[2-(methylsulfonyl)ethyl]amino}methyl)-2-furyl]-3-quinolinecarbonitrile] |
| 231 to 232 °C | > 10000 nM | COc1cc(Nc2c(C#N)cnc3cc(-c4sccc4C=O)ccc23)c(Cl)cc1Cl [Example 163, 4-(2,4-Dichloro-5-methoxyanilino)-7-(3-formyl-2-thienyl)-3-quinolinecarbonitrile] |
| 188 °C (dec.) | 600 nM | COc1cc(Nc2c(C#N)cnc3cc(-c4ccc(CCCCN5CCOCC5)s4)ccc23)c(Cl)cc1Cl [Example 22, 4-(2,4-Dichloro-5-methoxyanilino)-7-{5-[4-(4-morpholinyl)butyl]-2-thienyl}-3-quinolinecarbonitrile] |
| 276 to 277 °C | > 10000 nM | COc1cc(Nc2c(C#N)cnc3cc(-c4cc5ccccc5o4)ccc23)c(Cl)cc1Cl [Example 119, 7-(1-Benzofuran-2-yl)-4-(2,4-dichloro-5-methoxyanilino)-3-quinolinecarbonitrile] |
| 176 to 181 °C | 290 nM | COc1cc(Nc2c(C#N)cnc3cc(-c4ccc(CN5CCN(CCO)CC5)o4)ccc23)c(Cl)cc1Cl [Example 75, 4-(2,4-Dichloro-5-methoxyanilino)-7-(5-{[4-(2-hydroxyethyl)-1-piperazinyl]methyl}-2-furyl)-3-quinolinecarbonitrile] |
| 142 to 144 °C | 92 nM | CCOC(=O)CC1CCN(Cc2ccc(-c3ccc4c(Nc5cc(OC)c(Cl)cc5Cl)c(C#N)cnc4c3)cc2)CC1 [Example 144, Ethyl (1-{4-[3-cyano-4-(2,4-dichloro-5-methoxyanilino)-7-quinolinyl]benzyl}-4-piperidinyl) acetate] |

More lines, now with the values behind:

| Compound | melting point | GI50 [1] |
| --- | --- | --- |
| COc1cc(Nc2c(C#N)cnc3cc(-c4ccc(CN5CCOCC5)cc4)ccc23)c(Cl)cc1C [Example 234, 4-(2-Chloro-5-methoxy4-methylanilino)-7-[4-(4-morpholinylmethyl)phenyl]3-quinolinecarbonitrile] | 140 to 143 °C | 720 nM |
| COc1ccc(/C=C/c2ccc3c(Nc4cc(OC)c(Cl)cc4Cl)c(C#N)cnc3c2)cc1 [Example 54, 4-(2,4-Dichloro-5-methoxyanilino)-7-[(E)-2-(4-methoxyphenyl)ethenyl]-3-quinolinecarbonitrile] | 216 to 220 °C | > 10000 nM |
| COc1cc(Nc2c(C#N)cnc3cc(-c4cncn4CCN4CCOCC4)ccc23)c(Cl)cc1Cl [Example 64, 4-(2,4-Dichloro-5-methoxyanilino)-7-{1-[2-(4-morpholinyl)ethyl]-lH-imidazol-5-yl}-3-quinolinecarbonitrile] | 150 °C (dec.) | > 10000 nM |
| COc1cc(Nc2c(C#N)cnc3cc(-c4ncccc4CN4CCOCC4)ccc23)c(Cl)cc1Cl [Example 111, 4-(2,4-Dichloro-5-methoxyanilino)-7-[3-(morpholin-4-ylmethyl)-pyridin-2-yl]-3-quinolinecarbonitrile] | 151 to 154 °C | > 10000 nM |
| COc1cc(Nc2c(C#N)cnc3cc(-c4ccc(CN5CCC(C(=O)O)CC5)cc4)ccc23)c(Cl)cc1Cl [Example 237, 1-{4-[3-Cyano-4-(2,4-dichloro-5-methoxyanilino)-7-quinolinyl]benzyl}-4-piperidinecarboxylic acid] | 248 °C | 490 nM and 520 nM and 410 nM |
| COc1cc(Nc2c(C#N)cnc3cc(-c4ccc(CNCCS(C)(=O)=O)n4C)ccc23)c(Cl)cc1Cl [Example 73, 4-(2,4-dichloro-5-methoxyanilino)-7-[1-methyl-5-({[2-(methylsulfonyl)ethyl]amino}-methyl)-1H-pyrrol-2-yl]-3-quinolinecarbonitrile] | 160 to 164 °C | > 10000 nM |
| COc1cc(Nc2c(C#N)cnc3cc(-n4cccc4)ccc23)c(Cl)cc1Cl [Example 92, 4-(2,4-Dichloro-5-methoxyanilino)-7-pyrrol-1-yl-3-quinolinecarbonitrile] | 205 to 207 °C | 2110 nM |
| COc1cc(Nc2c(C#N)cnc3cc(-c4csc(CN5CCOCC5)c4)ccc23)c(C)cc1Cl [Example 167, 4-(4-Chloro-5-methoxy-2-methylanilino)-7-[5-(4-morpholinylmethyl)-3-thienyl]-3-quinolinecarbonitrile] | > 108 °C (dec.) | 900 nM |
| COc1cc(Nc2c(C#N)cnc3cc(/C=C/C(=O)OC(C)(C)C)ccc23)c(Cl)cc1Cl [Example 142, (E)-tert-Butyl 3-[3-cyano-4-(2,4-dichloro-5-methoxyanilino)-7-quinolinyl]-2-propenoate] | 203 to 204 °C | > 10000 nM |
| COc1cc(Nc2c(C#N)cnc3cc(-c4ccc(CN(C)C)cc4)ccc23)c(Cl)cc1Cl [Example 86, 4-(2,4-dichloro-5-methoxyanilino)-7-{4-[(dimethylamino)methyl]phenyl}-3-quinolinecarbonitrile] | 187 to 189 °C | 210 nM |
